EC50 data for 15 molecules are collected here from ChEMBL document CHEMBL6153078, “Design, synthesis, and biological evaluation of imidazolidinone derivatives as potent PPARα/δ agonists for the treatment of cholestatic liver diseases” (Eur J Med Chem, 2025).

The structures appear in SMILES notation. pEC50: −log10 of the molar value.

As a reminder, the pEC50 is the negative decadic logarithm of the EC50, by convention in mol/L.

Common to all, as to type: cell-based
Assay [1] addresses T1, Peroxisome proliferator-activated receptor alpha (Homo sapiens, UniProt Q07869).
T1 sequence (Q07869 whole entry): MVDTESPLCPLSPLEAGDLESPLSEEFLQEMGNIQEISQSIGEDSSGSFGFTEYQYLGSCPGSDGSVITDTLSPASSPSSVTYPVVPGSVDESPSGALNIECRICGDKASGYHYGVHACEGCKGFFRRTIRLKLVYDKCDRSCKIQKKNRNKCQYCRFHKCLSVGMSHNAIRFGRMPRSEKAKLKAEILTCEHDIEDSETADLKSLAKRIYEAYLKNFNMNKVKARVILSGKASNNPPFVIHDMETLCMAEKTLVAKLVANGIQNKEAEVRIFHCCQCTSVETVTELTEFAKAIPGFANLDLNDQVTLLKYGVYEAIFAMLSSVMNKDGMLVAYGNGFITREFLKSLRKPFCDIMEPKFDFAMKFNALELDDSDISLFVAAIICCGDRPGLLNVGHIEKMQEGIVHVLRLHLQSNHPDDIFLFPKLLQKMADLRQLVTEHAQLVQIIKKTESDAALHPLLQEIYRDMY
Put plainly: Agonist activity at GAL4-fused human PPAR-alpha transfected in African green monkey COS7 cells assessed transcriptional activation incubated for 16 hrs by Luciferase assay.

For assay [2], the target named is T2, Peroxisome proliferator-activated receptor gamma (Homo sapiens, UniProt P37231).
T2 sequence (P37231 whole entry): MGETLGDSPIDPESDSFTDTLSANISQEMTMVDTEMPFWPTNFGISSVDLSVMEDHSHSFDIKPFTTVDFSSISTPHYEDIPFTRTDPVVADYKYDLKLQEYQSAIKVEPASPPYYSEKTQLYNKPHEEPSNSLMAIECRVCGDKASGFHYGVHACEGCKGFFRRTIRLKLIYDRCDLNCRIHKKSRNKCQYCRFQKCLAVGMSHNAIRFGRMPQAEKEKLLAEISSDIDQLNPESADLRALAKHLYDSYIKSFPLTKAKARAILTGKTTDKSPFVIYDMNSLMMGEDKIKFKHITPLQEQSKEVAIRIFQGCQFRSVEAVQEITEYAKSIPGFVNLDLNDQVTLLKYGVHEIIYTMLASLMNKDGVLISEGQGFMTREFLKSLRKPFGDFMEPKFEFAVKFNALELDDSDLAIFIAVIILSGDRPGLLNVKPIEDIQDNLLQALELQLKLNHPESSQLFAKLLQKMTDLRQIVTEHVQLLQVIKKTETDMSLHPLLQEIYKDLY
Put plainly: Agonist activity at GAL4-fused human PPAR-gamma transfected in African green monkey COS7 cells assessed transcriptional activation incubated for 16 hrs by Luciferase assay.

Assay [3] has as its target T3, Peroxisome proliferator-activated receptor delta (Homo sapiens, UniProt Q03181).
T3 sequence (Q03181 whole entry): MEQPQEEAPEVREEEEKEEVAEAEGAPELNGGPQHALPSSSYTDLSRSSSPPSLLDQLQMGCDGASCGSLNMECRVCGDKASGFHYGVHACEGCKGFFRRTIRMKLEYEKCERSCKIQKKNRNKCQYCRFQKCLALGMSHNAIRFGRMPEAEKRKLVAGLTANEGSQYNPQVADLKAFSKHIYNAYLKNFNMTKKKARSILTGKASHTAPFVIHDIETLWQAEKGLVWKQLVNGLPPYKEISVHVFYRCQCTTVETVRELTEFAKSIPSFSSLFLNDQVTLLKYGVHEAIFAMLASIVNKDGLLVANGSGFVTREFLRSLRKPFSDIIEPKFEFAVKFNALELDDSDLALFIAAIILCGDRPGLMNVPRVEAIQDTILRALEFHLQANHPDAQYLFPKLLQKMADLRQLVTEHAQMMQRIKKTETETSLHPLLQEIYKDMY
Put plainly: Agonist activity at GAL4-fused human PPAR-delta transfected in African green monkey COS7 cells assessed transcriptional activation incubated for 16 hrs by Luciferase assay.

`Cc1cc(Cn2ncn(-c3ccc(OC(F)(F)F)cc3)c2=O)cc(C)c1OC(C)(C)C(=O)O`: in assay [1], the negative logarithm of the EC50 (pEC50) is 8.07.
In the case of `Cc1cc(CN2CCN(c3ccc(F)cc3)C2=O)cc(C)c1OC(C)(C)C(=O)O`, the figures for the pEC50 in assay [2], in assay [1] and in assay [3] were 5.67, 7.05 and 7.41, respectively.
As for `Cc1cc(CN2CCN(c3cccc(C(F)(F)F)c3)C2=O)cc(C)c1OC(C)(C)C(=O)O`, the negative-log EC50 (pEC50) in assay [2] is 6.05; in assay [1] it was 7.85; in assay [3] it was 7.39.
With `CCc1ccc(N2CCN(Cc3cc(C)c(OC(C)(C)C(=O)O)c(C)c3)C2=O)cc1`, the pEC50 in assay [2] was 5.89; in assay [1], 8.14.
`CC(C)(Oc1ccc(CN2CCN(c3ccc(C(F)(F)F)cc3)C2=O)cc1)C(=O)O` showed a pEC50 in assay [2] of less than 5.30.
Consider `COc1ccc(N2CCN(Cc3cc(C)c(OC(C)(C)C(=O)O)c(C)c3)C2=O)cc1`, for which the figures for the pEC50 in assay [2], in assay [1] and in assay [3] were 5.59, 6.92 and 6.58, respectively.
As to `Cc1cc(CN2CCN(c3ccc(Cl)cc3)C2=O)cc(C)c1OC(C)(C)C(=O)O`, in assay [1], the negative logarithm of the EC50 (pEC50) is 5.99.
As for `Cc1cc(CN2CCN(c3ccccc3C(F)(F)F)C2=O)cc(C)c1OC(C)(C)C(=O)O`, the pEC50 in assay [1] and in assay [3] was less than 5.30 each time.
For `Cc1cc(CN2CCN(c3ccc(OC(F)(F)F)cc3)C2=O)cc(C)c1OC(C)(C)C(=O)O`, the pEC50 was 6.38 in assay [2], 8.33 in assay [1] and 7.43 in assay [3].
`Cc1cc(CN2CCN(c3ccc(C(C)C)cc3)C2=O)cc(C)c1OC(C)(C)C(=O)O`: in assay [3], the negative logarithm of the EC50 (pEC50) was 7.16.
For `Cc1ccc(N2CCN(Cc3cc(C)c(OC(C)(C)C(=O)O)c(C)c3)C2=O)cc1`, the pEC50 in assay [2] is 5.92; in assay [1], 7.39.
Consider `Cc1cc(CN2CCN(c3ccccc3)C2=O)cc(C)c1OC(C)(C)C(=O)O`, for which the pEC50 in assay [1] was 6.36; in assay [3] it was 6.59.
In assay [3], `Cc1cc(CN2CCN(c3ccc(C(C)(C)C)cc3)C2=O)cc(C)c1OC(C)(C)C(=O)O` showed a negative logarithm of the EC50 (pEC50) of less than 5.30.
With `Cc1cc(CN2CCN(c3ccc(C(F)(F)F)cc3)C2=O)ccc1OC(C)(C)C(=O)O`, the pEC50 in assay [2] was less than 5.30; in assay [1], 6.76.
In the same order, the values of `CSc1ccc(C(=O)/C=C/c2cc(C)c(OC(C)(C)C(=O)O)c(C)c2)cc1` [ELAFIBRANOR] are 5.81 and 6.05.
